In patent US10864197B2, “Biphenyl sulfonamide compounds for the treatment of kidney diseases or disorders” (Retrophin, Inc., priority 2016, dated 2020):

What was measured:
Type in all cases: in vivo, human
[1] = system: patients with primary focal segmental glomerulosclerosis (FSGS); experiment: DUET phase 2 trial: change in urine protein to creatinine (UP/C) ratio, proteinuria; settings: for percentage of patients achieving UP/C ratio ≤1.5 g/g with >40% reduction during open-label period: 8 weeks to 48 weeks; for Reduction from Baseline in UP/C ratio (geometric least squares mean reduction) / Reduction from Baseline in UP/C ratio, intent-to-treat analysis: baseline to week 8; for Reduction from Baseline in UP/C ratio, intent-to-treat analysis: missing data imputed as zero change; for Proportion of patients who achieved UP/C ratio ≤1.5 g/g with >40% reduction: week 8
Text: DUET trial is a phase 2, double-blind, randomized, active-control, dose-escalation study (NCT01613118) that evaluates the efficacy and safety of sparsentan as a treatment for primary focal segmental glomerulosclerosis (FSGS), a rare disorder characterized by massive proteinuria and progressive loss of kidney function. Patients (ranging in age from 8 years to 75 years) with biopsy-proven primary FSGS (or documentation of a genetic mutation in a podocyte protein associated with the disease) having baseline urine protein to creatinine (“UP/C”) ratios greater than […] and estimated glomerular filtration rates greater than 30 ml/min were eligible for the study. The inclusion criteria also included a mean seated blood pressure >[…] and <145/96 mmHg for patients aged 18 years or older, or, for patients aged <18 years of age, a mean seated blood pressure of >90/60 mmHg and <95th percentile for age, gender, and height. The inclusion criteria included an allowance for a stable dose of immunosuppressive medication for ≥1 month. […] Patients who signed consent and met all inclusion and exclusion criteria during the screening phase underwent a 2-week angiotensin receptor blocker (ARB) and angiotensin converting enzyme (ACE) inhibitor washout period before being randomly assigned to one of the three escalating dose cohorts receiving sparsentan (200 mg/day; 400 mg/day; and 800 mg/day) or a fixed maximal dose of active control (the ARB irbesartan, at 300 mg/day) in a 3:1 ratio within each cohort. The primary endpoint was the change in UP/C ratio (determined as a measure of urinary protein excretion) from baseline. […] After the completion of an 8-week double-blind period, the patients continued sparsentan treatment on their assigned doses in an open-label extension for 136 additional weeks. Irbesartan control arm patients were offered sparsentan treatment at the dose they would have received according to the double-blind dose group in which they were enrolled. The analysis of the primary endpoint included 96 randomized patients who received at least one dose of the study drug, and had both baseline and week 8 UP/C ratio values (i.e., had completed 8 weeks of double-blind treatment). The pre-specified analysis order was (1) all sparsentan doses vs. irbesartan; (2) sparsentan 800- and 400-mg doses vs. irbesartan; (3) sparsentan 400-mg dose vs. irbesartan; (4) sparsentan 800-mg dose vs. irbesartan. Baseline or week 8 UP/C ratio data were missing for 9 sparsentan-treated patients and 4 irbesartan-treated patients. An intent-to-treat analysis was conducted, in which the missing data were imputed as zero change in UP/C ratio. […] The results across sparsentan dose cohorts were similar to those observed without imputed data (Table 4).

[2] = DUET trial: systolic and diastolic blood pressure; settings: double-blind period; irbesartan n=32, sparsentan n=64
Text: DUET trial is a phase 2, double-blind, randomized, active-control, dose-escalation study (NCT01613118) that evaluates the efficacy and safety of sparsentan as a treatment for primary focal segmental glomerulosclerosis (FSGS), a rare disorder characterized by massive proteinuria and progressive loss of kidney function. Patients (ranging in age from 8 years to 75 years) with biopsy-proven primary FSGS (or documentation of a genetic mutation in a podocyte protein associated with the disease) having baseline urine protein to creatinine (“UP/C”) ratios greater than 1 g/g and estimated glomerular filtration rates greater than 30 ml/min were eligible for the study. […]
Patients who signed consent and met all inclusion and exclusion criteria during the screening phase underwent a 2-week angiotensin receptor blocker (ARB) and angiotensin converting enzyme (ACE) inhibitor washout period before being randomly assigned to one of the three escalating dose cohorts receiving sparsentan (200 mg/day; 400 mg/day; and 800 mg/day) or a fixed maximal dose of active control (the ARB irbesartan, at 300 mg/day) in a 3:1 ratio within each cohort. The primary endpoint was the change in UP/C ratio (determined as a measure of urinary protein excretion) from baseline. […]

[3] = DUET trial: eGFR and serum markers; settings: double-blind period
Text: DUET trial is a phase 2, double-blind, randomized, active-control, dose-escalation study (NCT01613118) that evaluates the efficacy and safety of sparsentan as a treatment for primary focal segmental glomerulosclerosis (FSGS), a rare disorder characterized by massive proteinuria and progressive loss of kidney function. Patients (ranging in age from 8 years to 75 years) with biopsy-proven primary FSGS (or documentation of a genetic mutation in a podocyte protein associated with the disease) having baseline urine protein to creatinine (“UP/C”) ratios greater than 1 g/g and estimated glomerular filtration rates greater than 30 ml/min were eligible for the study. The inclusion criteria also included a mean seated blood pressure >[…] and <145/96 mmHg for patients aged 18 years or older, or, for patients aged <18 years of age, a mean seated blood pressure of >90/60 mmHg and <95th percentile for age, gender, and height. The inclusion criteria included an allowance for a stable dose of immunosuppressive medication for ≥1 month. Exclusion criteria included secondary FSGS; significant medical conditions related to cardiac, hepatic, or immune function; body mass index >[…] for adults or in the 99th percentile plus 5 for pediatric patients; hematocrit <27% or hemoglobin <[…]; serum potassium >5.5 mEq/L; and women who were pregnant, breastfeeding, or of child-bearing potential who were unwilling to use two methods of contraception.
Patients who signed consent and met all inclusion and exclusion criteria during the screening phase underwent a 2-week angiotensin receptor blocker (ARB) and angiotensin converting enzyme (ACE) inhibitor washout period before being randomly assigned to one of the three escalating dose cohorts receiving sparsentan (200 mg/day; 400 mg/day; and 800 mg/day) or a fixed maximal dose of active control (the ARB irbesartan, at 300 mg/day) in a 3:1 ratio within each cohort. The primary endpoint was the change in UP/C ratio (determined as a measure of urinary protein excretion) from baseline. The proportion of patients achieving UP/C ratio ≤1.5 g/g with >40% reduction in UP/C ratio at Week 8, a modified responder analysis, was evaluated as secondary endpoint.

[4] = Baseline, sparsentan 200-800 mg/day (n=64), irbesartan 300 mg/day (n=32)
[5] = Baseline, sparsentan 400-800 mg/day (n=51), irbesartan 300 mg/day (n=25)
[6] = Week 8, sparsentan 200-800 mg/day (n=64), irbesartan 300 mg/day (n=32)
[7] = Week 8, sparsentan 400-800 mg/day (n=51), irbesartan 300 mg/day (n=25)

In the case of `CCCCC1=NC2(CCCC2)C(=O)N1Cc1ccc(-c2ccccc2S(=O)(=O)Nc2noc(C)c2C)c(COCC)c1` [Sparsentan, 4′-((2-butyl-4-oxo-1,3-diazaspiro[4.4]non-1-en-3-yl)methyl)-N-(4,5-dimethylisoxazol-3-yl)-2′-(ethoxymethyl)-[1,1′-biphenyl]-2-sulfonamide], the “Complete remission (UP/C ratio <0.3 g/g), number of patients” value ([1]; 8-week double-blind period) is reported as 4 patients, the “percentage of patients achieving UP/C ratio ≤1.5 g/g with >40% reduction during open-label period” value ([1]; patients continuing to receive sparsentan) is reported as “increased” and the “percentage of patients achieving UP/C ratio ≤1.5 g/g with >40% reduction during open-label period” value ([1]; patients switched from irbesartan to sparsentan) is reported as “increased”. The “UP/C ratio, maximum” value [1, 4] was 18.66 g/g, the “UP/C ratio, mean (SD)” value [1, 4] was 4.707 (3.7810) g/g and the “UP/C ratio, median” value [1, 4] was 3.620 g/g. For the same compound, the “UP/C ratio, minimum” value [1, 4] was 0.43 g/g, the “UP/C ratio, maximum” value [1, 5] was 18.66 g/g and the “UP/C ratio, mean (SD)” value [1, 5] was 4.824 (4.0506) g/g. The “UP/C ratio, median” value [1, 5] was 3.530 g/g, the “UP/C ratio, minimum” value [1, 5] was 0.43 g/g and the “UP/C ratio, maximum” value [1, 6] was 14.47 g/g. The “UP/C ratio, mean (SD)” value [1, 6] was 3.300 (3.5719) g/g, the “UP/C ratio, median” value [1, 6] was 1.980 g/g and the “UP/C ratio, minimum” value [1, 6] was 0.12 g/g. The “UP/C ratio, maximum” value [1, 7] was 14.47 g/g, the “UP/C ratio, mean (SD)” value [1, 7] was 3.208 (3.4738) g/g and the “UP/C ratio, median” value [1, 7] was 1.900 g/g. For the same compound, the “UP/C ratio, minimum” value [1, 7] was 0.12 g/g, the “Reduction from Baseline in UP/C ratio (geometric least squares mean reduction)” value ([1]; dose cohort 200 mg sparsentan, irbesartan 300 mg/day) was 33.1% and the “Reduction from Baseline in UP/C ratio (geometric least squares mean reduction)” value ([1]; dose cohort 400 mg and 800 mg sparsentan, irbesartan 300 mg/day) was 47.4%. The “Reduction from Baseline in UP/C ratio (geometric least squares mean reduction)” value ([1]; dose cohort 400 mg and 800 mg sparsentan, irbesartan 300 mg/day, listed as sparsentan) was 47%, the “Reduction from Baseline in UP/C ratio (geometric least squares mean reduction)” value ([1]; dose cohort 400 mg sparsentan, irbesartan 300 mg/day) was 52.7% and the “Reduction from Baseline in UP/C ratio (geometric least squares mean reduction)” value ([1]; dose cohort 800 mg sparsentan, irbesartan 300 mg/day) was 41.3%. The “Reduction from Baseline in UP/C ratio (geometric least squares mean reduction)” value ([1]; dose cohort All (sparsentan 200-800 mg/day; irbesartan 300 mg/day)) was 44.8%, the “Reduction from Baseline in UP/C ratio (geometric least squares mean reduction)” value ([1]; dose cohort All (sparsentan 200-800 mg/day; irbesartan 300 mg/day), listed as sparsentan) was 45% and the “Reduction from Baseline in UP/C ratio, intent-to-treat analysis” value ([1]; dose cohort 200 mg) was 33.1%. The “Reduction from Baseline in UP/C ratio, intent-to-treat analysis” value ([1]; dose cohort 400 mg) was 50.5%, the “Reduction from Baseline in UP/C ratio, intent-to-treat analysis” value ([1]; dose cohort 400 mg and 800 mg) was 44.8% and the “Reduction from Baseline in UP/C ratio, intent-to-treat analysis” value ([1]; dose cohort 800 mg) was 38.4%. For the same compound, the “Reduction from Baseline in UP/C ratio, intent-to-treat analysis” value ([1]; dose cohort All) was 42.7%, the “% Change from Baseline to Week 8 in UP/C ratio, geometric LSmeans” value ([1]; sparsentan 200-800 mg/day (n=64), irbesartan 300 mg/day (n=32)) was −44.8% and the “% Change from Baseline to Week 8 in UP/C ratio, geometric LSmeans” value ([1]; sparsentan 400-800 mg/day (n=51), irbesartan 300 mg/day (n=25)) was −47.4%. The “Proportion of patients who achieved UP/C ratio ≤1.5 g/g with >40% reduction” value ([1]; dose cohort 200 mg) was 15.4%, the “Proportion of patients who achieved UP/C ratio ≤1.5 g/g with >40% reduction” value ([1]; dose cohort 400 mg) was 38.1% and the “Proportion of patients who achieved UP/C ratio ≤1.5 g/g with >40% reduction” value ([1]; dose cohort 400 mg and 800 mg) was 31.4%. The “Proportion of patients who achieved UP/C ratio ≤1.5 g/g with >40% reduction” value ([1]; dose cohort 800 mg) was 26.7%, the “Proportion of patients who achieved UP/C ratio ≤1.5 g/g with >40% reduction” value ([1]; dose cohort All) was 28.1% and the “Proportion of patients who achieved UP/C ratio ≤1.5 g/g with >40% reduction” value ([1]; dose cohort All, listed as sparsentan) was 28%. The “mean systolic and diastolic blood pressures relative to baseline” value [2] was “reduction was statistically significant”, the “change in N-terminal pro-B-type natriuretic peptide” value [3] was “no significant change or difference” and the change in albumin [3] was “no significant change or difference”. For the same compound, the “change in eGFR” value [3] was “no significant change or difference” and the “change in serum potassium” value [3] was “no significant change or difference”.
